From patent publication US20090143279A1 (priority 2007, published 2009)
Where two headings read alike, the source gives them in different places.

Assays:
nuOXPHOS transcripts = format: cell-based, mouse; conditions: for nucOX (composite Z-score): normalized score vs mock-treated (DMSO) wells
[1] = tested on: cellular dehydrogenase activity; conditions: for MTT (composite Z-score): normalized score vs mock-treated (DMSO) wells
reactive oxygen species = format: cell-based, mouse; conditions: for ROS (composite Z-score): normalized score vs mock-treated (DMSO) wells
[2] = tested on: mitochondrial membrane potential; format: cell-based, mouse; conditions: for ΔΨm (composite Z-score): normalized score vs mock-treated (DMSO) wells
OXPHOS gene expression = format: cell-based, mouse; conditions: for GE-HTS (composite Z-score): normalized score vs mock-treated (DMSO) wells
C2C12 myotubes = conditions: for Viability (composite Z-score): normalized score vs mock-treated (DMSO) wells
mtOXPHOS transcripts = format: cell-based, mouse; conditions: for mitoOX (composite Z-score): normalized score vs mock-treated (DMSO) wells
cytochrome c = format: cell-based, mouse; conditions: for cyt c (composite Z-score): normalized score vs mock-treated (DMSO) wells
[3] = composite Z-score vs mock-treated (DMSO) wells, Conc 20 μM
[4] = normalized composite Z-score vs mock-treated (DMSO) wells, Conc 20 μM
[5] = composite Z-score vs DMSO, Conc 20 μM
[6] = 18.5 μM, composite Z-score vs DMSO
[7] = 20 μM, composite Z-score vs DMSO
[8] = Table 4, C2C12 myotubes, 48 h, composite Z-score

CC(=O)O[C@H]1C[C@@H](OC(C)=O)C(C)(C)C2C[C@@H](O)[C@]3(C)C(CC[C@@]4(C)[C@H](c5ccoc5)OC(=O)[C@H]5O[C@]543)[C@]21C (stereo partly drawn) [7-deacetylkhivorin]
nucOX (nuOXPHOS transcripts; [3]): 0.543 | MTT [1, 3]: 0.608 | ROS (reactive oxygen species; [3]): −0.618 | ΔΨm [2, 3]: −0.049 | GE-HTS (OXPHOS gene expression; [3]): 0.477 | Viability (C2C12 myotubes; [3]): 0.893 | mitoOX (mtOXPHOS transcripts; [3]): 0.188 | cyt c (cytochrome c; [3]): 0.079

CC1=C2C(O)C(=O)OC3CC4C(C)(C)C(=O)C=C[C@]4(C)C(CC1)[C@]23C (stereo partly drawn) [merogedunin]
nucOX (nuOXPHOS transcripts; [4]): −0.160 | MTT [1, 4]: −0.645 | ROS (reactive oxygen species; [4]): 0.741 | ΔΨm [2, 4]: −0.214 | GE-HTS (OXPHOS gene expression; [4]): −0.254 | Viability (C2C12 myotubes; [4]): −0.222 | mitoOX (mtOXPHOS transcripts; [4]): −0.350 | cyt c (cytochrome c; [4]): 0.490

C=C1C2CC[C@@]3(C)[C@H](c4ccoc4)OC(=O)C[C@]13O[C@H]1CC(=O)C(C)(C)[C@H](C(OC(C)=O)C(=O)OC)[C@@]21C (stereo partly drawn) [6-acetoxyangolensic acid methyl ester]
nucOX (composite Z-score) (nuOXPHOS transcripts; Conc 20 μM): 1.291 | MTT (composite Z-score) ([1]; Conc 20 μM): −0.663 | ROS (composite Z-score) (reactive oxygen species; Conc 20 μM): 1.137 | ΔΨm (composite Z-score) ([2]; Conc 20 μM): −0.055 | GE-HTS (composite Z-score) (OXPHOS gene expression; Conc 20 μM): 1.379 | Viability (composite Z-score) (C2C12 myotubes; Conc 20 μM): 0.671 | mitoOX (composite Z-score) (mtOXPHOS transcripts; Conc 20 μM): 1.272 | cyt c (composite Z-score) (cytochrome c; Conc 20 μM): −0.105

CO/N=C(\C(=O)N[C@@H]1C(=O)N2C(C(=O)OCOC(=O)C(C)(C)C)=C(/C=C\c3scnc3C)CS[C@H]12)c1csc(N)n1 [cefditorin pivoxil]
nucOX (nuOXPHOS transcripts; [5]): 0.100 | MTT [1, 5]: −0.718 | ROS (reactive oxygen species; [5]): 0.426 | ΔΨm [2, 5]: 0.245 | GE-HTS (OXPHOS gene expression; [5]): 0.238 | Viability (C2C12 myotubes; [5]): −0.219 | mitoOX (mtOXPHOS transcripts; [5]): 0.440 | cyt c (cytochrome c; [5]): 0.200

C=C1C(=O)O[C@@H]2C[C@@]3(C)CCC[C@H](C)C3=C[C@H]12 [helenine]
nucOX (nuOXPHOS transcripts; [5]): −2.240 | MTT [1, 5]: −6.498 | ROS (reactive oxygen species; [5]): −2.409 | ΔΨm [2, 5]: −3.676 | GE-HTS (OXPHOS gene expression; [5]): −2.156 | Viability (C2C12 myotubes; [5]): −4.599 | mitoOX (mtOXPHOS transcripts; [5]): −1.624 | cyt c (cytochrome c; [5]): −5.312

COc1c2occc2cc2ccc(=O)oc12 [methoxy-8-psoralen]
nucOX (nuOXPHOS transcripts; [6]): 0.952 | MTT [1, 6]: −0.371 | ROS (reactive oxygen species; [6]): 0.103 | ΔΨm [2, 6]: 0.605 | GE-HTS (OXPHOS gene expression; [6]): 0.803 | Viability (C2C12 myotubes; [6]): 1.463 | mitoOX (mtOXPHOS transcripts; [6]): 0.340 | cyt c (cytochrome c; [6]): 0.227

COc1ccc(-c2cc(=O)c3c(O)cc(O[C@H]4O[C@H](CO[C@@H]5O[C@@H](C)[C@H](O)[C@@H](O)[C@H]5O)[C@@H](O)[C@H](O)[C@H]4O)cc3o2)cc1 [buddleoflavonoloside]
nucOX (composite Z-score) (nuOXPHOS transcripts; Conc 20 μM): 0.114 | MTT (composite Z-score) ([1]; Conc 20 μM): 0.006 | ROS (composite Z-score) (reactive oxygen species; Conc 20 μM): 0.265 | ΔΨm (composite Z-score) ([2]; Conc 20 μM): 0.050 | GE-HTS (composite Z-score) (OXPHOS gene expression; Conc 20 μM): 0.073 | Viability (composite Z-score) (C2C12 myotubes; Conc 20 μM): 0.169 | mitoOX (composite Z-score) (mtOXPHOS transcripts; Conc 20 μM): 0.017 | cyt c (composite Z-score) (cytochrome c; Conc 20 μM): 0.736

Oc1ncnc2[nH]ncc12 [allopurinol]
nucOX (nuOXPHOS transcripts; [7]): −0.849 | MTT [1, 7]: −1.611 | ROS (reactive oxygen species; [7]): 1.448 | ΔΨm [2, 7]: −0.204 | GE-HTS (OXPHOS gene expression; [7]): −0.869 | Viability (C2C12 myotubes; [7]): 0.376 | mitoOX (mtOXPHOS transcripts; [7]): −0.798 | cyt c (cytochrome c; [7]): −0.105

C[C@H](CCC(=O)O)[C@H]1CC[C@H]2[C@@H]3CC[C@@H]4CCCC[C@]4(C)[C@H]3CC[C@]12C [ursocholanic acid]
nucOX (nuOXPHOS transcripts; [5]): −0.946 | MTT [1, 5]: −0.246 | ROS (reactive oxygen species; [5]): 0.978 | ΔΨm [2, 5]: −1.738 | GE-HTS (OXPHOS gene expression; [5]): −0.920 | Viability (C2C12 myotubes; [5]): 0.050 | mitoOX (mtOXPHOS transcripts; [5]): −0.657 | cyt c (cytochrome c; [5]): 1.303

CC(C)=CCC/C(C)=C/CC/C(C)=C/CO [farnesol]
nucOX (nuOXPHOS transcripts; [5]): 0.106 | MTT [1, 5]: −1.554 | ROS (reactive oxygen species; [5]): 0.550 | ΔΨm [2, 5]: −0.153 | GE-HTS (OXPHOS gene expression; [5]): −0.066 | Viability (C2C12 myotubes; [5]): −1.327 | mitoOX (mtOXPHOS transcripts; [5]): −0.401 | cyt c (cytochrome c; [5]): −0.437

COC[C@]12CN(C=O)[C@@H]3[C@@H]4[C@H](OC)[C@H]1[C@@]3([C@@H](OC)C[C@H]2O)[C@@H]1C[C@@]2(O)[C@H](OC(=O)c3ccccc3)[C@@H]1[C@]4(OC(C)=O)[C@@H](O)[C@@H]2OC [oxonitine]
nucOX (nuOXPHOS transcripts; [3]): −0.938 | MTT [1, 3]: −1.730 | ROS (reactive oxygen species; [3]): −0.167 | ΔΨm [2, 3]: −1.019 | GE-HTS (OXPHOS gene expression; [3]): −0.636 | Viability (C2C12 myotubes; [3]): −1.338 | mitoOX (mtOXPHOS transcripts; [3]): 0.147 | cyt c (cytochrome c; [3]): 0.394

C=C[C@@](C)(O)CCC1C(=C)CCC2[C@@](C)(CO)CCC[C@]12C (stereo partly drawn) [epi(13)torulosol]
nucOX (nuOXPHOS transcripts; [4]): 0.342 | MTT [1, 4]: 0.603 | ROS (reactive oxygen species; [4]): 1.180 | ΔΨm [2, 4]: 0.022 | GE-HTS (OXPHOS gene expression; [4]): 0.491 | Viability (C2C12 myotubes; [4]): 0.367 | mitoOX (mtOXPHOS transcripts; [4]): 0.643 | cyt c (cytochrome c; [4]): 0.483

COc1cc(O)c(C(=O)c2ccccc2)cc1O [cearoin]
nucOX (nuOXPHOS transcripts; [3]): −1.568 | MTT [1, 3]: −2.331 | ROS (reactive oxygen species; [3]): −2.274 | ΔΨm [2, 3]: −1.006 | GE-HTS (OXPHOS gene expression; [3]): −1.672 | Viability (C2C12 myotubes; [3]): −1.078 | mitoOX (mtOXPHOS transcripts; [3]): −1.603 | cyt c (cytochrome c; [3]): −1.478

C=C1C2=CC(=O)O[C@@H](c3ccoc3)[C@]2(C)CC[C@@H]1[C@@]1(C)C=CC(=O)C(C)(C)[C@@H]1CC(=O)OC [deoxyandirobin]
nucOX (nuOXPHOS transcripts; [3]): 1.240 | MTT [1, 3]: 0.232 | ROS (reactive oxygen species; [3]): −1.077 | ΔΨm [2, 3]: 0.381 | GE-HTS (OXPHOS gene expression; [3]): 1.352 | Viability (C2C12 myotubes; [3]): 0.894 | mitoOX (mtOXPHOS transcripts; [3]): 1.246 | cyt c (cytochrome c; [3]): 1.196

CC1(C)C=CC(=O)[C@@]2(C)C1CC(=O)[C@]1(C)C2CC[C@@]2(C)[C@H](c3ccoc3)OC(=O)C3OC321 (stereo partly drawn) [deacetoxy-7-oxisogedunin]
nucOX (composite Z-score) (nuOXPHOS transcripts; Conc 20 μM): 0.821 | MTT (composite Z-score) ([1]; Conc 20 μM): −0.791 | ROS (composite Z-score) (reactive oxygen species; Conc 20 μM): 0.898 | ΔΨm (composite Z-score) ([2]; Conc 20 μM): 0.332 | GE-HTS (composite Z-score) (OXPHOS gene expression; Conc 20 μM): 0.816 | Viability (composite Z-score) (C2C12 myotubes; Conc 20 μM): −0.301 | mitoOX (composite Z-score) (mtOXPHOS transcripts; Conc 20 μM): 0.694 | cyt c (composite Z-score) (cytochrome c; Conc 20 μM): 0.153

C=C1CCC(=O)C(C)CCC2C1CC2(C)C (stereo not drawn) [dihydrocaryophyllen-5-one]
nucOX (nuOXPHOS transcripts; [4]): −0.513 | MTT [1, 4]: −1.453 | ROS (reactive oxygen species; [4]): 0.483 | ΔΨm [2, 4]: 0.090 | GE-HTS (OXPHOS gene expression; [4]): −0.496 | Viability (C2C12 myotubes; [4]): 0.219 | mitoOX (mtOXPHOS transcripts; [4]): −0.317 | cyt c (cytochrome c; [4]): 0.620

C/C1=C\CC/C(C)=C/CC(C)(C)/C=C/C1 [humulene]
nucOX (nuOXPHOS transcripts; [4]): −0.188 | MTT [1, 4]: −1.208 | ROS (reactive oxygen species; [4]): 0.679 | ΔΨm [2, 4]: −0.232 | GE-HTS (OXPHOS gene expression; [4]): −0.096 | Viability (C2C12 myotubes; [4]): −0.070 | mitoOX (mtOXPHOS transcripts; [4]): 0.060 | cyt c (cytochrome c; [4]): −0.100

O=C1c2ccc(O)cc2OC(c2cc(O)c(O)c(O)c2)C1O (stereo in doubt) [dihydrorobinetin, reference compound]
nucOX (composite Z-score) (nuOXPHOS transcripts; Conc 20 μM): −1.089 | MTT (composite Z-score) ([1]; Conc 20 μM): −1.259 | MTT [1, 8]: −1.259 | ROS (composite Z-score) (reactive oxygen species; Conc 20 μM): −0.393 | ROS (reactive oxygen species; [8]): −0.393 | ΔΨm (composite Z-score) ([2]; Conc 20 μM): −3.396 | ΔΨm ([2]; Table 4, C2C12 myotubes, 48 h, JC-1, composite Z-score): −3.396 | GE-HTS (composite Z-score) (OXPHOS gene expression; Conc 20 μM): −1.192 | Viability (composite Z-score) (C2C12 myotubes; Conc 20 μM): −1.070 | Viability (C2C12 myotubes; [8]): −1.070 | mitoOX (composite Z-score) (mtOXPHOS transcripts; Conc 20 μM): −1.124 | cyt c (composite Z-score) (cytochrome c; Conc 20 μM): 0.082

COc1c2c(cc3c1OCO3)CC[N+](C)=C2 [cotarnine]
nucOX (nuOXPHOS transcripts; [3]): 0.159 | MTT [1, 3]: −0.587 | ROS (reactive oxygen species; [3]): −0.007 | ΔΨm [2, 3]: −1.103 | GE-HTS (OXPHOS gene expression; [3]): 0.049 | Viability (C2C12 myotubes; [3]): −0.398 | mitoOX (mtOXPHOS transcripts; [3]): −0.151 | cyt c (cytochrome c; [3]): 0.068
